Tests used:
Format in all cases: cell-based
[1] = tested on: Debaryomyces hansenii; assay: Wood preservative efficacy against bacteria and yeasts, tryptose agar plates; set-up: key: 0 = growth equal to control, 1 = inhibition, 2 = no growth
Procedure: Compositions were prepared by dissolving the compounds shown in Table 1 in 50% ethanol and further diluting with sterile distilled water. […] After cooling, the medium was inoculated with the bacteria listed below. After sufficient growth of the untreated cultures, the compounds were evaluated using the following rating system: 0=growth equal to control 1=inhibition of growth by the compound 2=no growth under the influence of the compound. In this Table, the higher numbers are the most preferred species. Debaryomyces hansenii (yeast)

[2] = tested on: Flavobacterium sp.; assay: as above; set-up: key: 0 = growth equal to control, 1 = growth inhibited, 2 = no growth
Procedure: Compositions were prepared by dissolving the compounds shown in Table 1 in 50% ethanol and further diluting with sterile distilled water. […] After cooling, the medium was inoculated with the bacteria listed below. After sufficient growth of the untreated cultures, the compounds were evaluated using the following rating system: 0=growth equal to control 1=inhibition of growth by the compound 2=no growth under the influence of the compound. In this Table, the higher numbers are the most preferred species. Flavobacterium sp. (gram neg)

[3] = tested on: Cladosporium resinae; assay: Wood preservative efficacy against fungi, agar plate colony diameter
Procedure: (§1) Each plate was inoculated with a spore suspension or with a small piece of agar (1 mm) from the margin of an actively growing colony of the test fungus. The fungi employed are listed below. After incubation at 22° C. and 70% relative humidity during a period long enough to allow significant growth of untreated controls, the diameters of the fungus colonies were measured and scored using the following rating system: 0=free of fungal growth 1=25% of fungal growth compared to untreated 2=50% of fungal growth compared to untreated 3=75% of fungal growth compared to untreated 4=Growth equal to that of untreated The scores measured for wood preservation efficacy of the compounds of this invention are listed in Tables 6a and 6b. In these Tables, the lower numbers are the most preferred species. Cladosporium resinae (syn Hormonocanis resinae, Amorphotheca resinae)

[4] = tested on: Trichoderma viride; assay: as above
Procedure: as §1, with “Trichoderma viride” for “Cladosporium resinae (syn Hormonocanis resinae, Amorphotheca resinae)”

[5] = tested on: Enterobacter aerogenes; assay: Wood preservative efficacy against bacteria and yeasts, tryptose agar plates; set-up: key: 0 = growth equal to control, 1 = inhibition, 2 = no growth
Procedure: Compositions were prepared by dissolving the compounds shown in Table 1 in 50% ethanol and further diluting with sterile distilled water. […] After cooling, the medium was inoculated with the bacteria listed below. After sufficient growth of the untreated cultures, the compounds were evaluated using the following rating system: 0=growth equal to control 1=inhibition of growth by the compound 2=no growth under the influence of the compound. In this Table, the higher numbers are the most preferred species. Enterobacter aerogenes (gram neg)

[6] = tested on: Aspergillus niger; assay: Wood preservative efficacy against fungi, agar plate colony diameter
Procedure: as §1, with “Aspergillus niger” for “Cladosporium resinae (syn Hormonocanis resinae, Amorphotheca resinae)”

[7] = tested on: Aureobasidium pullulans; assay: as above; set-up: key: 1=25%, 2=50%, 3=75%, 4=100% of untreated growth; lower better
Procedure: The compounds shown in Table 1 were dissolved in 50% ethanol and then diluted with sterile water to give the required concentrations of 1 and 10 ppm in the test agar plates. Malt extract sugar (3%) was added aseptically and uniform distribution was obtained by shaking. Each plate was inoculated with a spore suspension or with a small piece of agar (1 mm) from the margin of an actively growing colony of the test fungus. The fungi employed are listed below. After incubation at 22° C. and 70% relative humidity during a period long enough to allow significant growth of untreated controls, the diameters of the fungus colonies were measured and scored using the following rating system:
1=25% of fungal growth compared to untreated
2=50% of fungal growth compared to untreated
3=75% of fungal growth compared to untreated
4=Growth equal to that of untreated
In these Tables, the lower numbers are the most preferred species.

[8] = tested on: Chaetomium globosum; assay: as above
Procedure: as §1, with “Chaetomium globosum” for “Cladosporium resinae (syn Hormonocanis resinae, Amorphotheca resinae)”

Compound | Score of bactericidal activity, D. hansenii ([1]; 10 ppm in tryptose agar) | Score of bactericidal activity, D. hansenii ([1]; 100 ppm in tryptose agar) | Score of bactericidal activity, Flavobacter ([2]; 100 ppm in tryptose agar) | Score of fungicidal activity, CL RESINAE ([3]; Test dosage 10 ppm, Table 6A) | Score of fungicidal activity, T. VIRIDE ([4]; Test dosage 10 ppm, Table 6A) | Score of bactericidal activity, E. aerogenes ([5]; 100 ppm in tryptose agar) | Score of fungicidal activity, A. NIGER ([6]; Test dosage 10 ppm, Table 6A) | Score of fungicidal activity, A. PULLULANS ([7]; Test dosage 10 ppm, Table 6A) | Score of fungicidal activity, C. GLOBOSUM ([8]; Test dosage 10 ppm, Table 6A) | Score of bactericidal activity, Flavobacter ([2]; 10 ppm in tryptose agar) | Score of fungicidal activity, CL RESINAE ([3]; 10 ppm, Table 6B) | Score of fungicidal activity, T. VIRIDE ([4]; 10 ppm, Table 6B) | Score of bactericidal activity, E. aerogenes ([5]; 10 ppm in tryptose agar) | Score of fungicidal activity, A. NIGER ([6]; 10 ppm, Table 6B) | Score of fungicidal activity, A. PULLULANS ([7]; 10 ppm, Table 6B) | Score of fungicidal activity, C. GLOBOSUM ([8]; 10 ppm, Table 6B)
C[S+]1CCON=C1c1ccc(Cl)cc1 (stereo not drawn) [Compound 1] | 2 | 2 | 2 | 2 (50% of growth compared to untreated control) | 2 (50% of growth compared to untreated control) | 0 | 0 | 3 (75% of growth compared to untreated control) | 0 |  |  |  |  |  |  | 
[O-][S+]1CCON=C1c1ccc(Cl)c(Cl)c1 (stereo not drawn) [Compound 4] | 2 | 2 | 2 | 0 | 1 (25% of growth compared to untreated control) | 0 | 0 | 2 (50% of growth compared to untreated control) | 0 |  |  |  |  |  |  | 
[O-][S+]1CCON=C1c1cccs1 (stereo not drawn) [Compound 8] | 2 | 2 | 2 | 2 (50% of growth compared to untreated control) | 2 (50% of growth compared to untreated control) | 2 | 1 (25% of growth compared to untreated control) | 2 (50% of growth compared to untreated control) | 2 (50% of growth compared to untreated control) |  |  |  |  |  |  | 
CC(=O)c1ccc(C2=NOCC[S+]2[O-])cc1 (stereo not drawn) [Compound 14] | 0 | 2 | 2 | 0 | 3 (75% of growth compared to untreated control) | 0 | 3 (75% of growth compared to untreated control) | 4 | 4 |  |  |  |  |  |  | 
C[S+]1CCON=C1c1cc(Cl)cc(Cl)c1 (stereo not drawn) [Compound 19] |  |  | 2 |  |  | 0 |  |  |  | 0 | 0 | 2 (50% of growth compared to untreated control) | 0 | 0 | 3 (75% of growth compared to untreated control) | 0
CCOC(=O)c1ccc(C2=NOCC[S+]2[O-])cc1 (stereo not drawn) [Compound 22] |  |  | 2 |  |  | 0 |  |  |  | 1 | 4 | 3 (75% of growth compared to untreated control) | 0 | 3 (75% of growth compared to untreated control) | 4 | 4
C[S+]1CCON=C1c1ccc(C(F)(F)F)cc1 (stereo not drawn) [Compound 25] |  |  | 2 |  |  | 0 |  |  |  | 1 | 0 | 2 (50% of growth compared to untreated control) | 0 | 0 | 3 (75% of growth compared to untreated control) | 3 (75% of growth compared to untreated control)
COC(=O)c1cccc(C2=NOCC[S+]2[O-])c1 (stereo not drawn) [Compound 26] |  |  | 2 |  |  | 0 |  |  |  | 0 | 4 | 3 (75% of growth compared to untreated control) | 0 | 4 | 4 | 4
CCOc1ccc(C2=NOCC[S+]2C)cc1 (stereo not drawn) [Compound 28] |  |  | 2 |  |  | 0 |  |  |  | 0 | 4 | 3 (75% of growth compared to untreated control) | 0 | 4 | 4 | 4
